{"source": "PubChem BioAssay AID1259409", "about": "(Chemical Carcinogenesis Research Information System (CCRIS), 2018)", "origin": "cited, not measured here", "test_system": "rodent chemically induced tumor inhibition, incidence and multiplicity", "experiment": "CCRIS tumor inhibitor studies", "conditions": "Carcinogen: AZOXYMETHANE, 25843-45-2, Dose [Inhibitor]: 0, Route [Inhibitor]: ORAL, Species: RAT, Strain/Sex: F344/MALE, Dose [Carcinogen]: 15 MG/KG BW 1/WK FOR 3 WK, Promoter: NONE USED", "data": [{"smiles": "O=C(O)c1ccc(O)c(O)c1", "values": [{"measurement": "tumour outcome (control, treated, inhibition, significance)", "setting": "500 PPM IN DIET FOR 4 WK BEGINNING 1 WK PRIOR TO CARCINOGEN TREATMENT (STUDY DURATION: 32 WK), Target Tissue: Type of Lesion: COLON: ADENOCARCINOMA", "result": "75%, 55%, 27%, not significant"}, {"measurement": "tumour outcome (control, treated, inhibition, significance)", "setting": "500 PPM IN DIET FOR 4 WK BEGINNING 1 WK PRIOR TO CARCINOGEN TREATMENT (STUDY DURATION: 32 WK), Target Tissue: Type of Lesion: COLON: ADENOMA", "result": "10%, 5%, 50%, not significant"}, {"measurement": "tumour outcome (control, treated, inhibition, significance)", "setting": "500 PPM IN DIET FOR 4 WK BEGINNING 1 WK PRIOR TO CARCINOGEN TREATMENT (STUDY DURATION: 32 WK), Target Tissue: Type of Lesion: LARGE INTESTINE: ADENOCARCINOMA", "result": "15/20 (75%), 11/20 (55%), 27%, not significant"}, {"measurement": "tumour outcome (control, treated, inhibition, significance)", "setting": "500 PPM IN DIET FOR 4 WK BEGINNING 1 WK PRIOR TO CARCINOGEN TREATMENT (STUDY DURATION: 32 WK), Target Tissue: Type of Lesion: LARGE INTESTINE: ADENOMA", "result": "2/20 (10%), 1/20 (5%), 50%, not significant"}, {"measurement": "tumour outcome (control, treated, inhibition, significance)", "setting": "500 PPM IN DIET FOR 4 WK BEGINNING 1 WK PRIOR TO CARCINOGEN TREATMENT (STUDY DURATION: 32 WK), Target Tissue: Type of Lesion: SMALL INTESTINE: ADENOCARCINOMA", "result": "6/20 (30%), 6/20 (30%), 0%, not significant"}, {"measurement": "tumour outcome (control, treated, inhibition, significance)", "setting": "500 PPM IN DIET FOR 4 WK BEGINNING 1 WK PRIOR TO CARCINOGEN TREATMENT (STUDY DURATION: 32 WK), Target Tissue: Type of Lesion: SMALL INTESTINE: ADENOMA", "result": "1/20 (5%), 0/20 (0%), 100%, not significant"}, {"measurement": "tumour outcome (control, treated, inhibition, significance)", "setting": "500 PPM IN DIET FOR 28 WK BEGINNING 1 WK POST CARCINOGEN TREATMENT (STUDY DURATION: 32 WK), Target Tissue: Type of Lesion: COLON: ADENOCARCINOMA", "result": "75%, 40%, 47%, not significant"}, {"measurement": "tumour outcome (control, treated, inhibition, significance)", "setting": "500 PPM IN DIET FOR 28 WK BEGINNING 1 WK POST CARCINOGEN TREATMENT (STUDY DURATION: 32 WK), Target Tissue: Type of Lesion: LARGE INTESTINE: ADENOCARCINOMA", "result": "15/20 (75%), 8/20 (40%), 47%, not significant"}, {"measurement": "tumour outcome (control, treated, inhibition, significance)", "setting": "500 PPM IN DIET FOR 28 WK BEGINNING 1 WK POST CARCINOGEN TREATMENT (STUDY DURATION: 32 WK), Target Tissue: Type of Lesion: LARGE INTESTINE: ADENOMA", "result": "2/20 (10%), 3/20 (15%), -50%, not significant"}, {"measurement": "tumour outcome (control, treated, inhibition, significance)", "setting": "500 PPM IN DIET FOR 28 WK BEGINNING 1 WK POST CARCINOGEN TREATMENT (STUDY DURATION: 32 WK), Target Tissue: Type of Lesion: SMALL INTESTINE: ADENOCARCINOMA", "result": "6/20 (30%), 1/20 (5%), 83%, not significant"}, {"measurement": "tumour outcome (control, treated, inhibition, significance)", "setting": "500 PPM IN DIET FOR 28 WK BEGINNING 1 WK POST CARCINOGEN TREATMENT (STUDY DURATION: 32 WK), Target Tissue: Type of Lesion: SMALL INTESTINE: ADENOMA", "result": "1/20 (5%), 0/20 (0%), 100%, not significant"}, {"measurement": "tumour outcome (control, treated, inhibition, significance)", "setting": "1000 PPM IN DIET FOR 4 WK BEGINNING 1 WK PRIOR TO CARCINOGEN TREATMENT (STUDY DURATION: 32 WK), Target Tissue: Type of Lesion: COLON: ADENOCARCINOMA", "result": "75%, 30%, 60%, p<0.05"}, {"measurement": "tumour outcome (control, treated, inhibition, significance)", "setting": "1000 PPM IN DIET FOR 4 WK BEGINNING 1 WK PRIOR TO CARCINOGEN TREATMENT (STUDY DURATION: 32 WK), Target Tissue: Type of Lesion: COLON: ADENOMA", "result": "10%, 9%, 10%, not significant"}, {"measurement": "tumour outcome (control, treated, inhibition, significance)", "setting": "1000 PPM IN DIET FOR 4 WK BEGINNING 1 WK PRIOR TO CARCINOGEN TREATMENT (STUDY DURATION: 32 WK), Target Tissue: Type of Lesion: LARGE INTESTINE: ADENOCARCINOMA", "result": "15/20 (75%), 7/23 (30%), 60%, p<0.006"}, {"measurement": "tumour outcome (control, treated, inhibition, significance)", "setting": "1000 PPM IN DIET FOR 4 WK BEGINNING 1 WK PRIOR TO CARCINOGEN TREATMENT (STUDY DURATION: 32 WK), Target Tissue: Type of Lesion: LARGE INTESTINE: ADENOMA", "result": "2/20 (10%), 2/23 (9%), 10%, not significant"}, {"measurement": "tumour outcome (control, treated, inhibition, significance)", "setting": "1000 PPM IN DIET FOR 4 WK BEGINNING 1 WK PRIOR TO CARCINOGEN TREATMENT (STUDY DURATION: 32 WK), Target Tissue: Type of Lesion: SMALL INTESTINE: ADENOCARCINOMA", "result": "6/20 (30%), 8/23 (35%), -17%, not significant"}, {"measurement": "tumour outcome (control, treated, inhibition, significance)", "setting": "1000 PPM IN DIET FOR 4 WK BEGINNING 1 WK PRIOR TO CARCINOGEN TREATMENT (STUDY DURATION: 32 WK), Target Tissue: Type of Lesion: SMALL INTESTINE: ADENOMA", "result": "1/20 (5%), 1/23 (4%), 20%, not significant"}, {"measurement": "tumour outcome (control, treated, inhibition, significance)", "setting": "1000 PPM IN DIET FOR 28 WK BEGINNING 1 WK POST CARCINOGEN TREATMENT (STUDY DURATION: 32 WK), Target Tissue: Type of Lesion: COLON: ADENOCARCINOMA", "result": "75%, 22%, 71%, p<0.05"}, {"measurement": "tumour outcome (control, treated, inhibition, significance)", "setting": "1000 PPM IN DIET FOR 28 WK BEGINNING 1 WK POST CARCINOGEN TREATMENT (STUDY DURATION: 32 WK), Target Tissue: Type of Lesion: COLON: ADENOMA", "result": "10%, 9%, 10%, not significant"}, {"measurement": "tumour outcome (control, treated, inhibition, significance)", "setting": "1000 PPM IN DIET FOR 28 WK BEGINNING 1 WK POST CARCINOGEN TREATMENT (STUDY DURATION: 32 WK), Target Tissue: Type of Lesion: LARGE INTESTINE: ADENOCARCINOMA", "result": "15/20 (75%), 5/23 (22%), 71%, p<0.008"}]}]}
